{"source": "patent US20060141076A1", "about": "“Morinda citrifolia based compositions and methods for inhibiting xanthine oxidase” (priority 2004, published 2006)", "target": "T1, Xanthine Oxidase (Bos taurus, UniProt P80457)", "T1 construct": "Xanthine Oxidase was obtained from Bovine butter milk; from tissue; host or cells: bovine buttermilk", "T1 sequence (P80457 whole entry)": "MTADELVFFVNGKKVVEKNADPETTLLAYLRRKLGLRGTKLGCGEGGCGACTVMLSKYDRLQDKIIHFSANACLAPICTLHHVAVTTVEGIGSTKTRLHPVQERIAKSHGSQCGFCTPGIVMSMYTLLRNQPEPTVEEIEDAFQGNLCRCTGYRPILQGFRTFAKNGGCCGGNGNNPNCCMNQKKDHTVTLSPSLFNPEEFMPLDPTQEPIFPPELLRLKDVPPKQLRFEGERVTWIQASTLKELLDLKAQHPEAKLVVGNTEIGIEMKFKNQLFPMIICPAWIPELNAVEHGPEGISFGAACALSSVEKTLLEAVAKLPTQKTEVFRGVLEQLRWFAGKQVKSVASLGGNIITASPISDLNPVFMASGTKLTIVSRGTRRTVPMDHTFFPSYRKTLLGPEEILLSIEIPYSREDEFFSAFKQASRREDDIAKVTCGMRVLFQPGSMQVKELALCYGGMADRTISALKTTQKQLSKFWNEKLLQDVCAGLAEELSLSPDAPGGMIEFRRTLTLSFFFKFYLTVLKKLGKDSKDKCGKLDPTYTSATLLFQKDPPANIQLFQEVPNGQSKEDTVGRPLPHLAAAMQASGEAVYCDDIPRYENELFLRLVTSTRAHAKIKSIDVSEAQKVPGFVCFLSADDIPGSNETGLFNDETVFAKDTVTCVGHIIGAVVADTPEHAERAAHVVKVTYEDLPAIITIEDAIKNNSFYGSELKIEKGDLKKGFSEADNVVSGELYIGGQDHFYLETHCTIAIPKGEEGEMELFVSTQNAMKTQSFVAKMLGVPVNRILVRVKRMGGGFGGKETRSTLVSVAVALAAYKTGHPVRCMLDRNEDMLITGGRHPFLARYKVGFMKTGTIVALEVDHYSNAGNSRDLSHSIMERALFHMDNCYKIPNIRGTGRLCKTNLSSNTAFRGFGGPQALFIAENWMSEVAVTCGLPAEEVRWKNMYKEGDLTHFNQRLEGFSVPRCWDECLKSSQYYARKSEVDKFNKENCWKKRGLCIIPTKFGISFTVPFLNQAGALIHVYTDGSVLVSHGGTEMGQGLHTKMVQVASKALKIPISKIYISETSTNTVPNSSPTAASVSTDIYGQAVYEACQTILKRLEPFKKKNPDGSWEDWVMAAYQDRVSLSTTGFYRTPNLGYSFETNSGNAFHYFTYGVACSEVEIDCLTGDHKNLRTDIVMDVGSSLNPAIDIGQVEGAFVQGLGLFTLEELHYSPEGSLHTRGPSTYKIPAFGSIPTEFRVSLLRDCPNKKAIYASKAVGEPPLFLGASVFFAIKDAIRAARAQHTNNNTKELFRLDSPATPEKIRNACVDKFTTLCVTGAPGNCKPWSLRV", "test": "Xanthine oxidase inhibition assay (uric acid quantitated by spectrophotometer, 165 μM xanthine substrate)", "format": "biochemical, Bovine", "conditions": "Allopurinol comparison; concentration not given", "excerpt": "All other results are expressed in terms of that assay's quantitation method. For primary assays, only the lowest concentration with a significant response judged by the assays' criteria, is shown in this summary.\nMethods employed in this study were adapted from the scientific literature to maximize reliability and reproducibility.", "data": [{"smiles": "Oc1ncnc2[nH]ncc12", "note": "[Allopurinol]", "values": [{"measurement": "percent inhibition of xanthine oxidase", "value": "approximately 90%"}]}]}
